Our source for the IC50 and inhibition values is ChEMBL document CHEMBL1139706, “Novel thienopyrrole glycogen phosphorylase inhibitors: synthesis, in vitro SAR and crystallographic studies” (Bioorg Med Chem Lett, 2006).

Assay [1] concerns the target T1, Glycogen phosphorylase, liver form (Homo sapiens, UniProt P06737).
T1 sequence (P06737 whole entry): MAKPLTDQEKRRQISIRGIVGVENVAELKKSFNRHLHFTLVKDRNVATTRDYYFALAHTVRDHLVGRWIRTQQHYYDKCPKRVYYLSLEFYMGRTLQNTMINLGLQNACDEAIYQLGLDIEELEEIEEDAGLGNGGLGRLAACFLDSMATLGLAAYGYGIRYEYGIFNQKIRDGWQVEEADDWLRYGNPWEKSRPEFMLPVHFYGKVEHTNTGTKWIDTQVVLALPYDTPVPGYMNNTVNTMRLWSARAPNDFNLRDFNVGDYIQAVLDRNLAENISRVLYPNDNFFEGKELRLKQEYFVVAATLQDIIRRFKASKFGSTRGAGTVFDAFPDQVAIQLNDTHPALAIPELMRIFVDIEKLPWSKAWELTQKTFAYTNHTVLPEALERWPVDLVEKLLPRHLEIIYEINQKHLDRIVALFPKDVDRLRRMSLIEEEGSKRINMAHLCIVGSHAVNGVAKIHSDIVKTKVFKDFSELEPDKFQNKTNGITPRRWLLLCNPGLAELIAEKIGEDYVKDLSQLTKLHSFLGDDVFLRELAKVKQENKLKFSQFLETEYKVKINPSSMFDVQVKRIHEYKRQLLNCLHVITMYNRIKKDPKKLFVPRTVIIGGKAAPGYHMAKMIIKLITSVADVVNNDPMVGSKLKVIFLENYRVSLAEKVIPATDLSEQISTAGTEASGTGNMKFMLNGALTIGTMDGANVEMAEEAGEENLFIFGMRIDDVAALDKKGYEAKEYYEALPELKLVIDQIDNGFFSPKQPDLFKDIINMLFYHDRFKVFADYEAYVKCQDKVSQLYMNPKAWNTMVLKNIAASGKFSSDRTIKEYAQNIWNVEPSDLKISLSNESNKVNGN
Put plainly: Inhibition of recombinant human liver GPa by multienzyme coupled assay.

The subject of the next assay is Hepatocyte. Put plainly: Inhibition of glucose output in glucagon challenged rat hepatocytes. In kind it is functional, cell-based.
The target in assay [2] is T2, Glycogen phosphorylase, liver form (Homo sapiens) (UniProt P06737).
T2 sequence (whole entry): T1 sequence (P06737 whole entry)
The assay is described as follows: Inhibition of recombinant human liver GPa by multienzyme coupled assay at 100 uM.

The target of assay [3] is T2, Glycogen phosphorylase, liver form (Homo sapiens). Put plainly: Inhibition of recombinant human liver GPa by multienzyme coupled assay at 10 uM.

What is called IC50 is the concentration that inhibits the measured activity by half. Broadly, the inhibition is the drop in the measured response relative to a control, in per cent.

Consider `O=C(N[C@@H]1Cc2ccc(F)cc2[C@H]1O)c1cc2sc(Cl)c(Cl)c2[nH]1`, for which the IC50 in assay [1] worked out at 49 nM; in the assay with Hepatocyte, 1300 nM.

In the case of `CN(C)C(=O)[C@H](Cc1ccccc1)NC(=O)c1cc2sc(Br)c(Br)c2[nH]1`, in assay [1], the 50% inhibitory concentration (IC50) was found to be 23 nM.

As to `CN(C)C(=O)[C@H](Cc1ccccc1)NC(=O)c1cc2cc(Cl)sc2[nH]1`, the values for the half-inhibitory concentration (IC50) (in assay [1]; in the assay on Hepatocyte) were 17 nM and 1400 nM, respectively.

Consider `O=C(NC1Cc2ccccc2C1)c1cc2cc(Cl)sc2[nH]1`, for which the IC50 in assay [1] was 806 nM.

For `CN(C)C(=O)[C@H](Cc1ccccc1)NC(=O)c1cc2sc(Br)c(Br)c2n1C`, the IC50 is above 10000 nM in assay [1] and 1100 nM in the assay with Hepatocyte.

Take `CN(C)C(=O)[C@H](Cc1ccccc1)NC(=O)c1cc2sccc2[nH]1`: the inhibition in assay [2] amounted to 35%.

On to `CNC(=O)[C@H](Cc1ccccc1)NC(=O)c1cc2scc(Cl)c2[nH]1`, for which, in assay [1], the IC50 is 390 nM.

On to `O=C(N[C@@H]1Cc2ccccc2[C@H]1O)c1cc2cc(Cl)sc2[nH]1`, for which the IC50 in the assay on Hepatocyte was found to be 3600 nM.

Consider `CN(C)C(=O)[C@H](Cc1ccccc1)N(C)C(=O)c1cc2sc(Br)c(Br)c2[nH]1`, for which the concentration for half-maximal inhibition (IC50) in assay [1] was above 10000 nM.

In the case of `CN(C)C(=O)[C@H](Cc1ccccc1)NC(=O)c1cc2ccsc2[nH]1`, the IC50 in assay [1] was found to be 2310 nM.

Turning to `O=C(NC1Cc2ccccc2NC1=O)c1cc2cc(Cl)ccc2[nH]1` (configuration not stated), the IC50 in assay [1] is 86 nM; in the assay with Hepatocyte, 7000 nM.

On to `CN(C)C(=O)[C@H](Cc1ccccc1)NC(=O)c1cc2c(Br)c(Br)sc2[nH]1`, for which, in assay [3], the inhibition is 20%.

As for `CN(C)C(=O)[C@H](Cc1ccccc1)NC(=O)c1cc2cc(Cl)ccc2[nH]1`, the IC50 came to 51 nM in assay [1] and 2600 nM with Hepatocyte.

As for `O=C(N[C@@H]1Cc2ccc(Cl)cc2[C@H]1O)c1cc2sc(Cl)c(Cl)c2[nH]1`, the IC50 in assay [1] amounted to 90 nM.

For the molecule `CN(C)C(=O)[C@H](Cc1ccccc1)NC(=O)c1cc2cc(Br)sc2[nH]1`, the values for the concentration for half-maximal inhibition (IC50) (in assay [1]; in the assay with Hepatocyte) were 31 nM and 1600 nM, respectively.

`O=C(N[C@@H]1Cc2ccccc2[C@H]1O)c1cc2sc(Cl)c(Cl)c2[nH]1`: the IC50 in assay [1] was found to be 9 nM; in the assay with Hepatocyte, 1500 nM.

As for `O=C(NC1Cc2ccccc2C1)c1cc2sc(Cl)c(Cl)c2[nH]1`, the IC50 in assay [1] worked out at 197 nM.

Turning to `CN(C)C(=O)[C@H](Cc1ccccc1)NC(=O)c1cc2sc(Cl)c(Cl)c2[nH]1`, the IC50 in assay [1] stood at 5 nM; with Hepatocyte, 1000 nM.

For the molecule `CNC(=O)[C@H](Cc1ccccc1)NC(=O)c1cc2sc(Cl)cc2[nH]1`, the concentration for half-maximal inhibition (IC50) in assay [1] worked out at 577 nM.
